Source: publication PMC7156458, “Synthetic biology based construction of biological activity-related library of fungal decalin-containing diterpenoid pyrones” (Nature Communications, 2020)
Values joined by “and” are separate entries in the source; they are usually repeats but may differ in a detail not shown here. Identical values can stand only once. Like-named read-outs stand apart in the source and are kept apart here.

Key:
[1] = test system: human immunodeficiency virus-1 (HIV-1); experiment: anti-HIV MAGI assay; type: cell-based
Description: (§1) We examined the inhibitory activities of DDPs against various species of bacteria (both gram-negative and gram-positive bacteria), fungi and viruses. […] In contrast, preliminary screening of the DDPs for anti-viral agents with hepatitis B virus (HBV), measles virus (MV), Epstein-Barr virus (EBV), herpes simplex virus (HSV) and human immunodeficiency virus-1 (HIV-1) indicated their selective inhibition of HIV.

[2] = test system: MCF-7 cells; experiment: cell cytotoxic effects against MCF-7 cells (72 h), A490; type: cell-based, human; conditions: for viability at 0.1 µM / viability at 1 µM / viability at 10 µM: Homo sapiens, MCF7, 72 h, read-out: A490 (control =1) ave
Experimental: !" ' ' '! !" ' ' '! !" ' ' '!!" ' ' '!!" ' ' '!!" ' ' '!!" ' ' '!!" ' ' '! !" ' ' '! !" ' ' '! !" ' ' '! !"#$
( % ) * '! '' '# '+ '$ '( '%
! " # $ %& %% %' %( %) %! %"
!" ' ' '! !" ' ' '!!" ' ' '!!" ' ' '!!" ' ' '!!" ' ' '!!" ' ' '! !" ' ' '! !" ' ' '! !" ' ' '! !" ' ' '! […]
Supplementary Fig. 46. a, Cell cytotoxic effects of DDPs against MCF-7 cells (72 h).
dose dependent cytotoxic effects against MCF-7 cells were tested their inhibitory activity against mammosphere
formation. Compound in blue (16) was also performed mammosphere assay as negative control. Data represent
mean±s.d. from three independent replicate experiments. […]
Source data underlying Supplementary Figure 46a are provided in a Source Data file. […]

[3] = test system: MAGI cells; experiment: cytotoxicity in the anti-HIV assay (CC50); type: cell-based; conditions: for Cytotoxicity: single determinations
Description: as §1
Policy information about cell lines […]
HeLa-CD4-LTR/ !-galactosidase (MAGI) cells provided by Dr. J. Overbaugh through the NIH AIDS Research and Reference […]
MAGI cells were authenticated by the NIH.
Mycoplasma contamination All the cell lines tested negative for mycoplasma contamination.
Commonly misidentified lines No commonly mis-identified cell lines. […]

[4] = cytotoxicity in Drosophila DL1 cells; type: cell-based; conditions: Drosophila, DL1 cells (embryonic macrophage-derived), DL1 cells
Experimental: (§2) We screened the DDPs on the Drosophila assay system for cytotoxicity, inhibitory activity of innate immune signalling and insecticidal activity. The cytotoxicity of the DDPs was evaluated using two cell lines, embryonic macrophage-derived DL1 cells[58]–[60] and larval blood cell-derived l(2)mbn cells, and their IC50 values are listed in Supplementary Table 23.

[5] = test system: DL1 cells; experiment: cytotoxicity in Drosophila DL1 cells; type: cell-based; conditions: for % viability, viability 1: replicate 1, relative to DMSO 1%; for % viability, viability 2: replicate 2, relative to DMSO 1%
Experimental: as §2

[6] = Human immunodeficiency virus 1, MAGI, anti-HIV, average of numeric determinations, read-out: Avg. EC50
[7] = MCF-7, 72 h, 0.1 µM (DMSO 0.002%)
[8] = MCF-7, 72 h, 0.1 µM (DMSO 0.002%), control 1.064
[9] = MCF-7, 72 h, 1 µM (DMSO 0.02%), control 1.104
[10] = MCF-7, 72 h, 10 µM (DMSO 0.2%), control 1.049
[11] = replicate 1, relative to DMSO 1%, read-out: % viability, viability 1
[12] = replicate 2, relative to DMSO 1%, read-out: % viability, viability 2
[13] = DL1 cells, 0.04 µM, replicate 1
[14] = DL1 cells, 0.04 µM, replicate 2
[15] = Drosophila melanogaster, DL1 cells, cytotoxicity, average of two replicates, read-out: IC50 Average
[16] = Drosophila melanogaster, DL1 cells, cytotoxicity, replicate 1, read-out: IC50 (1)
[17] = Drosophila melanogaster, DL1 cells, cytotoxicity, replicate 2, read-out: IC50 (2)
[18] = Drosophila melanogaster, DL1 cells, cytotoxicity, average±SEM, read-out: IC50

EC50 [1, 6] [nM] | SMILES | A490 ave [2, 8] | A490 ave [2, 9] | A490 ave [2, 10] | Cytotoxicity [3] | viability at 0.04 µM [4, 11] [%] | viability at 0.04 µM [4, 12] [%] | viability at 0.2 µM [4, 11] [%] | Luminescence Raw1 [5, 13] | Luminescence Raw2 [5, 14] | Luminescence Raw1 ([5]; DL1 cells, 0.2 µM, replicate 1) | Luminescence Raw2 ([5]; DL1 cells, 0.2 µM, replicate 2) | Luminescence Raw1 ([5]; DL1 cells, 1 µM, replicate 1) | Luminescence Raw2 ([5]; DL1 cells, 1 µM, replicate 2) | Luminescence Raw1 ([5]; DL1 cells, 4 µM, replicate 1) | Luminescence Raw2 ([5]; DL1 cells, 4 µM, replicate 2) | Luminescence Raw1 ([5]; DL1 cells, 10 µM, replicate 1) | Luminescence Raw2 ([5]; DL1 cells, 10 µM, replicate 2) | Luminescence Raw1 ([5]; DL1 cells, 20 µM, replicate 1) | Luminescence Raw2 ([5]; DL1 cells, 20 µM, replicate 2) | other results
38.9 | C=C1CC[C@H]2[C@]3(C)C[C@@H](C=C(C)C)O[C@H]3CC[C@]2(C)[C@@H]1Cc1c(O)c(C)c(C)oc1=O [Compound 5, subglutinol A] | 0.489 | 0.503 | 0.088 | >10 µM | 6.35 | 8.13 | 3.78 | 261750 | 334946 | 155744 | 204060 | 149254 | 158268 | 162234 | 166201 | 152139 | 173051 | 137356 | 139880 | EC50 ([1]; Human immunodeficiency virus 1, MAGI, anti-HIV, MAGI assay, read-out: EC50): < 200 nM; EC50 ([1]; Human immunodeficiency virus 1, MAGI, anti-HIV, single determinations, read-out: Efficacy (EC50)): 36.3 nM; EC50 ([1]; anti-HIV, single determinations, read-out: Efficacy (EC50)): 29.8 nM and 37.9 nM and 51.4 nM; cytotoxicity against the bulk of MCF-7 cells [2]: dose-dependent cytotoxicity; viability at 0.1 µM [2, 7]: 45.9%; viability at 1 µM ([2]; MCF-7, 72 h, 1 µM (DMSO 0.02%)): 45.5%; viability at 10 µM ([2]; MCF-7, 72 h, 10 µM (DMSO 0.2%)): 8.4%; viability at 0.2 µM [4, 12]: 4.95%; viability at 1 µM [4, 11]: 3.62%; viability at 1 µM [4, 12]: 3.84%; viability at 4 µM [4, 11]: 3.94%; viability at 4 µM [4, 12]: 4.03%; viability at 10 µM [4, 11]: 3.69%; viability at 10 µM [4, 12]: 4.2%; viability at 20 µM [4, 11]: 3.33%; viability at 20 µM [4, 12]: 3.4%; IC50 [5, 15]: < 40 nM; IC50 [5, 16]: < 40 nM; IC50 [5, 17]: < 40 nM; IC50 ([5]; Drosophila melanogaster, DL-1 cell line, cell growth, read-out: IC50): < 40 nM
757 | C=C1CC[C@H]2[C@]3(C)C[C@H](C=C(C)C)O[C@H]3CC[C@]2(C)[C@@H]1Cc1c(O)c(C)c(C)oc1=O [Compound 6, subglutinol B] | 0.595 | 1.207 | 0.235 | >10 µM | 118 | 124 | 23.9 | 2426216 | 2551013 | 492518 | 1138346 | 157908 | 170527 | 161874 | 145288 | 147812 | 152139 | 149254 | 136274 | viability at 0.1 µM [2, 7]: 55.9%; viability at 1 µM ([2]; MCF-7, 72 h, 1 µM (DMSO 0.02%)): 109%; viability at 10 µM ([2]; MCF-7, 72 h, 10 µM (DMSO 0.2%)): 22.4%; viability at 0.2 µM [4, 12]: 55.3%; viability at 1 µM [4, 11]: 7.67%; viability at 1 µM [4, 12]: 8.28%; viability at 4 µM [4, 11]: 7.86%; viability at 4 µM [4, 12]: 7.05%; viability at 10 µM [4, 11]: 7.18%; viability at 10 µM [4, 12]: 7.39%; viability at 20 µM [4, 11]: 7.25%; viability at 20 µM [4, 12]: 6.62%; IC50 [5, 15]: 234 nM; IC50 [5, 18]: 230 ± 70 nM; IC50 [5, 16]: 166 nM; IC50 [5, 17]: 303 nM
23.2 | C=C1CCC2C(C)(CCC=C(C)C)C(=O)CCC2(C)C1Cc1c(O)c(C)c(C)oc1=O (centres unmarked) [Compound 8] |  |  |  | 9.604 µM and 7.239 µM | 189 | 219 | 185 | 2594102 | 2999528 | 2536752 | 2851638 | 1767451 | 1791254 | 250019 | 282109 | 313118 | 331147 | 296893 | 291484 | Cytotoxicity Avg. ([3]; average of numeric determinations): 8.816 µM; viability at 0.2 µM [4, 12]: 208%; viability at 1 µM [4, 11]: 129%; viability at 1 µM [4, 12]: 131%; viability at 4 µM [4, 11]: 18.2%; viability at 4 µM [4, 12]: 20.6%; viability at 10 µM [4, 11]: 22.8%; viability at 10 µM [4, 12]: 24.1%; viability at 20 µM [4, 11]: 21.6%; viability at 20 µM [4, 12]: 21.3%; IC50 [5, 15]: 5020 nM; IC50 [5, 18]: 5020 ± 220 nM; IC50 [5, 16]: 4800 nM; IC50 [5, 17]: 5240 nM
 | C=C1CCC2C(C)(CCC=C(C)C)C(O)CCC2(C)C1Cc1c(OC)oc(C)c(C)c1=O (centres unmarked) [Compound 15, viridoxin A hydrolysate] | 0.873 | 1.333 | 0.649 | >10 µM |  |  |  | 2784909 | 3009267 | 2743429 | 2853442 | 2896366 | 3157521 | 726344 | 1230470 | 281027 | 344848 | 282109 | 296532 | EC50 ([1]; Human immunodeficiency virus 1, MAGI, read-out: Avg. EC50 (nM), anti-HIV, average of numeric determinations): 8.51 nM; viability at 0.1 µM [2]: 82%; viability at 1 µM [2]: 121%; viability at 10 µM [2]: 61.8%; % viability, viability 1 ([5]; DL1 cells, 0.04 µM): 203.06%; % viability, viability 2 ([5]; DL1 cells, 0.04 µM): 219.419%; % viability, viability 1 ([5]; DL1 cells, 0.2 µM): 200.035%; % viability, viability 2 ([5]; DL1 cells, 0.2 µM): 208.057%; % viability, viability 1 ([5]; DL1 cells, 1 µM): 211.186%; % viability, viability 2 ([5]; DL1 cells, 1 µM): 230.228%; % viability, viability 1 ([5]; DL1 cells, 4 µM): 52.9608%; % viability, viability 2 ([5]; DL1 cells, 4 µM): 89.7188%; % viability, viability 1 ([5]; DL1 cells, 10 µM): 20.4909%; % viability, viability 2 ([5]; DL1 cells, 10 µM): 25.1443%; % viability, viability 1 ([5]; DL1 cells, 20 µM): 20.5698%; % viability, viability 2 ([5]; DL1 cells, 20 µM): 21.6214%; IC50 ([5]; DL1 cells, cytotoxicity, average±SEM): 6100 ± 1570 nM; IC50 ([5]; read-out: IC50 (1), DL1 cells, cytotoxicity, replicate 1): 4530 nM; IC50 ([5]; read-out: IC50 (2), DL1 cells, cytotoxicity, replicate 2): 7660 nM; IC50 ([5]; read-out: IC50 Average, DL1 cells, cytotoxicity, average of two replicates): 6100 nM
